Results reported in patent US9062050B2, “Inhibitor of JAK1 and JAK2” (Eli Lilly and Company, priority 2012, dated 2015).

How the values were obtained:
JAK2 = JAK2 (Homo sapiens, UniProt O60674); assay: JAK LanthaScreen Kinase Assay (TR-FRET), JAK2; type: biochemical; parameters: purchased Life Technologies #PV4844; conditions: enzyme assay, 5 micromolar ATP, n=1; read-out: IC50 against JAK2
Source text: (§1) The JAK LanthaScreen™ Kinase Assay (Life Technologies, #PV4844) is used to determine compound IC50 values against the JAK1, JAK2, and JAK3 kinases. This kinase assay is a Time Resolved Fluorescence Resonance Energy Transfer (TR-FRET) assay format that uses long-lifetime terbium (Tb) labeled antibody as the donor species and Green Fluorescent Protein-Signal Transducers and Activators of Transcription (GFP-STAT1) as the acceptor species.
(§2) The TR-FRET ratio is used to monitor JAK1, JAK2, or JAK3 activity where an increase in phosphorylation of the GFP-STAT1 results in an increase in the TR-FRET ratio. Perform the kinase reaction using a 12.5 microliter reaction volume in shallow black 384-well Proxiplate (PerkinElmer, #6008260). […] Incubate at room temperature for 90 minutes, and read in an EnVision plate reader (PerkinElmer, #2104-0010) with 340 nm wavelength excitation filter and emission filters of 520 nm and 495 nm wavelengths. The ratio is derived from the emission wavelength for the GFP-STAT1 which is measured at 520 nanometer versus the emission at 495 nanometer for the Tb-anti-pSTAT1[pTyr701]. Derive the IC50 value for the compound using percent inhibition data, which is calculated from the reaction data relative to on-plate controls (active enzyme versus 2.0 micromolar control-inhibited enzyme). […]

IL-6-STAT3 signaling = assay: DS1-AlphaScreen-pSTAT3 cell-based assay; conditions: DS1 cells, IL6 10 ng/ml; read-out: IC50, inhibits IL-6-STAT3 signaling (pSTAT3)
Procedure: The DS1-AlphaScreen-pSTAT3-cell-based assay is used to examine the potency of compounds at blocking the IL6-stimulated STAT3 pathway. The JAK-STAT3 pathway is constitutively active in many types of cancers and is implicated in tumor cells for increasing proliferation, survival, and invasion. DS1 cells (ATCC) are cultured in RPMI complete medium with 10% FBS and then adopted and grown in DMEM/High Modified medium supplemented with 10% FBS at 37° C. at 95% humidity and under an atmosphere of 5% CO2. DS1 cells are plated at a density of 4×10^4 cells/well in 96 well-plates and cultured in serum-free culture medium at 37° C. for three hours, followed by pre-treatment either with vehicle alone (DMSO) or test compounds across a range of final concentrations from 0-20 μM for 10 min. IL6 (R&D System, 206-IL) is then added into the cell culture at 10 ng/ml final concentration, which is continued for an additional 30 min at 37° C. Finally, cells are lysed with 5× alpha lysis buffer and transferred to a 384-well plate (PerkinElmer, #6008280) filled with the reaction mixture (TGR Biosciences, South Australia, Australia, #TGRS3S10K) for pSTAT3 detection (#TGRS3SHV100). The plates are sealed and incubated at room temperature for 2 hours, and pSTAT3 is measured by using an Envision06 plate reader (TGR Biosciences, South Australia, Australia). The data are analyzed with ActivityBase 4.0.

JAK1 = biological target: T1, JAK1 (Homo sapiens, UniProt P23458); assay: JAK LanthaScreen Kinase Assay (TR-FRET), JAK1; type: biochemical; conditions: enzyme assay, 20.0 micromolar ATP, n=3; read-out: IC50 against JAK1
T1 construct: purchased Life Technologies #PV4844
Source text: as §1, §2

phosphorylation of STAT3 = assay: Mia-Paca2-MSD-pSTAT3 cell-based assay; conditions: Homo sapiens, MIA PaCa-2; Mia-paca2 pancreatic cancer cells, stimulated with conditioned medium; read-out: IC50, inhibits the phosphorylation of STAT3
Procedure: The Mia-Paca2-MSD (MesoScale Diagnostics)-pSTAT3 cell-based assay is used to examine the potency of compounds at blocking STAT3 phosphorylation in pancreatic cancer cells. Mia-paca2 cells (ATCC) are grown in DMEM complete medium supplemented with 10% FBS at 37° C. in incubator with 5% CO2. Cells are then collected, counted, plated at 4×10^4 cells/well in 96-well plates, and cultured for overnight at 37° C. with 5% CO2. Culture medium is removed from the cells and replaced with serum-free medium containing either vehicle alone (DMSO) or 2× final concentrations of compounds across a range from 0-20 μM at 1:3 dilution (10 dilutions). […] After stimulation, all medium is manually removed as above and cells are lysed in 50 microliters of ice cold 1×MSD lysis buffer (MesoScale Diagnostics, K150DID-2) containing 1×HALT protease and phosphatase inhibitor cocktail ((Thermo Scientific, 78441). The 96-well plates are sealed and then mixed for 2 minutes on an orbital shaker at room temperature, and then immediately frozen at −80° C. overnight. pSTAT3 is detected with the use of the MA6000 MSD Whole Cell Lysate Kit for Phospho-STAT-3 (Tyr 705) (MesoScale Diagnostics, #K150DID-2) as following, plates were blocked with blocking buffer at room temperature for 1-2 hours with shaking, and then washed 4× with washing buffer. […]

T1 sequence (P23458 whole entry): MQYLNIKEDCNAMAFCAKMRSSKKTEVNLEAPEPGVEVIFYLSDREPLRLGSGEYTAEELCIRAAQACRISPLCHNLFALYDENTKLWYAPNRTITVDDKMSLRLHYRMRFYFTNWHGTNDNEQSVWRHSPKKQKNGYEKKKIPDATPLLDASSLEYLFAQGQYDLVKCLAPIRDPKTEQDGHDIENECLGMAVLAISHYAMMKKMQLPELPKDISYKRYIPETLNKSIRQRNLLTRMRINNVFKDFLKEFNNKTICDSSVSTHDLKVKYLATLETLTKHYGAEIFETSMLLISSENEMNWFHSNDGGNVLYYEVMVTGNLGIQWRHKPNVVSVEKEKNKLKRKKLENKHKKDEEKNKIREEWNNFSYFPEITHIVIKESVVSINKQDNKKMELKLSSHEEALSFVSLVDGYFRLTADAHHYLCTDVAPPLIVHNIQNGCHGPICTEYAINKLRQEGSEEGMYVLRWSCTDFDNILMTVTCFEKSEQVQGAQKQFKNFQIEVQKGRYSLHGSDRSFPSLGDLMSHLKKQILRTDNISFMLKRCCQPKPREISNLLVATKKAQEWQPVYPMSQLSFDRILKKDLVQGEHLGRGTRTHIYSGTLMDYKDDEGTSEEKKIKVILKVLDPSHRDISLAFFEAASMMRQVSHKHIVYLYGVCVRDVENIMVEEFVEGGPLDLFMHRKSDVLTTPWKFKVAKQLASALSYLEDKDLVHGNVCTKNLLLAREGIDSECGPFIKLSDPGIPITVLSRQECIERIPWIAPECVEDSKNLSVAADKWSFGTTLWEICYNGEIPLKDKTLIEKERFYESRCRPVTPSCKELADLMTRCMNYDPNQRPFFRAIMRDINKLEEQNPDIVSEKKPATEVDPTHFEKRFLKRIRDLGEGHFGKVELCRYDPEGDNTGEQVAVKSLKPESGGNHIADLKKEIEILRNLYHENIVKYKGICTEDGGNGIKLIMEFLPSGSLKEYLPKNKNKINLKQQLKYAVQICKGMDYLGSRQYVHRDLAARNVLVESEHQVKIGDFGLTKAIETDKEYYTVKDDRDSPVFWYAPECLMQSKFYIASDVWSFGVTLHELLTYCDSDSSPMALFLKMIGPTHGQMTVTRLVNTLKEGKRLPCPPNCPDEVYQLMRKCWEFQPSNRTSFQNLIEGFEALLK
Sequence of JAK2 (O60674 whole entry): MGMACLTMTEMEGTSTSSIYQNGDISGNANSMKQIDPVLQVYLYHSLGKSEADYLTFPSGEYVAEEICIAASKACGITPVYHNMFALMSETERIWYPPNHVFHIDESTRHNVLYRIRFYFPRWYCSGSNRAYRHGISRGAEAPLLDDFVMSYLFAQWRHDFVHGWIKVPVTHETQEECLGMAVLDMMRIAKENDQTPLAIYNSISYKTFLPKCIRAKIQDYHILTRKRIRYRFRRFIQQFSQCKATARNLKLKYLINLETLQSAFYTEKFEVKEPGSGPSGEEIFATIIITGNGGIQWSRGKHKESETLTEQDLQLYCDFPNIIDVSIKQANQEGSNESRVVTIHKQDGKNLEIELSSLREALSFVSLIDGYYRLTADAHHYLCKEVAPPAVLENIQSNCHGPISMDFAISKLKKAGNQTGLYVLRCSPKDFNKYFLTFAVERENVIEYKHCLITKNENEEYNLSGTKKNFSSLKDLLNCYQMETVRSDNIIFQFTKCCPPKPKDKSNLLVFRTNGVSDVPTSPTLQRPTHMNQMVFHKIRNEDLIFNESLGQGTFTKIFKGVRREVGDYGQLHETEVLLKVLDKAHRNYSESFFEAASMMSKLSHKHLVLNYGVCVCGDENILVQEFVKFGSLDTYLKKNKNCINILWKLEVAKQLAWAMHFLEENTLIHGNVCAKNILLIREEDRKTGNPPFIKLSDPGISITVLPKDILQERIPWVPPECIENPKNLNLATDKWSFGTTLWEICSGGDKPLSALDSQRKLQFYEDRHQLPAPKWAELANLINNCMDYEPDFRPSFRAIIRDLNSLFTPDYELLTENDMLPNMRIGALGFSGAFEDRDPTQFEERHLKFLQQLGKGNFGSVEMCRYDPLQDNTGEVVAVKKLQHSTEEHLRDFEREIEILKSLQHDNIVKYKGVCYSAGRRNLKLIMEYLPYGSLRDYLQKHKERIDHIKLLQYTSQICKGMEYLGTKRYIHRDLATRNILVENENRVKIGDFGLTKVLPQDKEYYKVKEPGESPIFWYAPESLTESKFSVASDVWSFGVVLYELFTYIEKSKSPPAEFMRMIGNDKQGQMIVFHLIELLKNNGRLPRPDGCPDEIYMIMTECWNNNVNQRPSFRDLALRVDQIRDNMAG

Cc1cc(Nc2ccc3ncn([C@@H]4CCc5ccc(F)cc54)c3n2)[nH]n1.Cl.Cl [Example 1, 3-[(1R)-6-fluoro-2,3-dihydro-1H-inden-1-yl]-N-(3-methyl-1H-pyrazol-5-yl)-3H-imidazo[4,5-b]pyridin-5-amine dihydrochloride]
IC50 (JAK2): 1.7 nM
IC50 (IL-6-STAT3 signaling): 66 nM
IC50 (JAK1): 1.7 nM
IC50 (phosphorylation of STAT3): 12 nM
